Experimental findings from publication PMC12056728 (RSC Advances, 2025) are described below.

The target in the assay is α-glucosidase (E.C.3.2.1.20) (Saccharomyces cerevisiae, UniProt P53341). Put plainly: α-glucosidase inhibition assay. Type of assay: biochemical. The note with it: for α-glucosidase inhibitory activity (in words): IC50 could not be determined; for inhibition at 500 µM: read-out: Percent inhibition (0.5 mM).
Sequence of α-glucosidase (E.C.3.2.1.20) (P53341 whole entry): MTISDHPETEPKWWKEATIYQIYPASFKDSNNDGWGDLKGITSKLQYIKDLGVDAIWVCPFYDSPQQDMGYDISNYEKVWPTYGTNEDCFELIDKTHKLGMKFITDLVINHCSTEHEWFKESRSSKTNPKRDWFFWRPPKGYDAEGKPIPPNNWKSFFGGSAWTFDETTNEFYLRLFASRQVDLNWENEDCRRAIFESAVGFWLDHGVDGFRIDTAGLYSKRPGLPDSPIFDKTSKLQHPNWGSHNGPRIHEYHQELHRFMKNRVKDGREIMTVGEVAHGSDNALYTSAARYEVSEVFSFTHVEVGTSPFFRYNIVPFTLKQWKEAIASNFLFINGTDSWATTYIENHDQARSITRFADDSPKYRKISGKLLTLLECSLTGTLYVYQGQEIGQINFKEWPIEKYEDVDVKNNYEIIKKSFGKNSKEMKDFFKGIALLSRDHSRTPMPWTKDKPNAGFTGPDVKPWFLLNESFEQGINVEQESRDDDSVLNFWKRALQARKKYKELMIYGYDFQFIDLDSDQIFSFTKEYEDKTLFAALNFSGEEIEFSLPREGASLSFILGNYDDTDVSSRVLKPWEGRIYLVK

What is called inhibition is the percentage by which the read-out fell short of the control. For `O=C(NN=C1C(=O)N(CCOc2ccc(F)cc2)c2ccccc21)c1ccncc1` [1k, N′-(1-(2-(4-Fluorophenoxy)ethyl)-2-oxoindolin-3-ylidene)isonicotinohydrazide], the “α-glucosidase inhibitory activity (in words)” value is “loss of inhibitory activity” and the inhibition at 500 µM is 39.3%.

With `O=C(NN=C1C(=O)N(CCOc2ccc(Br)cc2)c2ccccc21)c1ccc(Br)cc1` [1i, 4-Bromo-N′-(1-(2-(4-bromophenoxy)ethyl)-2-oxoindolin-3-ylidene)benzohydrazide], the inhibition at 500 µM is 94.9%.

On to `O=C(NN=C1C(=O)N(CCOc2ccc(Br)cc2)c2ccccc21)c1ccncc1` [1h, N′-(1-(2-(4-Bromophenoxy)ethyl)-2-oxoindolin-3-ylidene)isonicotinohydrazide], for which the inhibition at 500 µM is 89.9%.

Consider `O=C(NN=C1C(=O)N(CCOc2ccccc2)c2ccccc21)c1cccnc1` [1a, N′-(2-Oxo-1-(2-phenoxyethyl)indolin-3-ylidene)nicotinohydrazide], for which the inhibition at 500 µM was determined as 75.6%.

Consider `O=C(NN=C1C(=O)N(CCOc2ccccc2)c2ccccc21)c1ccc(Br)cc1` [1c, 4-Bromo-N′-(2-oxo-1-(2-phenoxyethyl)indolin-3-ylidene)benzohydrazide], for which the inhibition at 500 µM worked out at 90.6%.

As to `O=C(NN=C1C(=O)N(CCOc2ccc(Cl)cc2)c2ccccc21)c1ccc(Br)cc1` [1f, 4-Bromo-N′-(1-(2-(4-chlorophenoxy)ethyl)-2-oxoindolin3ylidene)benzohydrazide], the inhibition at 500 µM was 94.5%.

Turning to `O=C(NN=C1C(=O)N(CCOc2ccc(F)cc2)c2ccccc21)c1ccc(Br)cc1` [1l, 4-Bromo-N′-(1-(2-(4-fluorophenoxy)ethyl)-2-oxoindolin-3-ylidene)benzohydrazide], the inhibition at 500 µM worked out at 93.1%.

Take `O=C(NN=C1C(=O)N(CCOc2ccc(Cl)cc2)c2ccccc21)c1cccnc1` [1d, N′-(1-(2-(4-Chlorophenoxy)ethyl)-2-oxoindolin-3-ylidene)nicotinohydrazide]: the inhibition at 500 µM worked out at 92.9%.

`O=C(NN=C1C(=O)N(CCOc2ccccc2)c2ccccc21)c1ccncc1` [1b, N′-(2-Oxo-1-(2-phenoxyethyl)indolin-3-ylidene)isonicotinohydrazide]: the inhibition at 500 µM was 94.1%.

Take `O=C(NN=C1C(=O)N(CCOc2ccc(F)cc2)c2ccccc21)c1cccnc1` [1j, N′-(1-(2-(4-Fluorophenoxy)ethyl)-2-oxoindolin-3-ylidene)nicotinohydrazide]: the “α-glucosidase inhibitory activity (in words)” value is listed as “complete loss of inhibitory activity” and the inhibition at 500 µM was 36%.

Turning to `O=C(NN=C1C(=O)N(CCOc2ccc(Cl)cc2)c2ccccc21)c1ccncc1` [1e, N′-(1-(2-(4-Chlorophenoxy)ethyl)-2-oxoindolin-3ylidene)isonicotinohydrazide], the inhibition at 500 µM was determined as 94.7%.

Turning to `O=C(NN=C1C(=O)N(CCOc2ccc(Br)cc2)c2ccccc21)c1cccnc1` [1g, N′-(1-(2-(4-Bromophenoxy)ethyl)-2-oxoindolin-3-ylidene)nicotinohydrazide], the inhibition at 500 µM came out at 92.1%.
